Results on 13 compounds are retold here after publication PMC9322123, “Design and Synthesis of New Pyrimidine-Quinolone Hybrids as Novel hLDHA Inhibitors” (Pharmaceuticals, 2022).

The experiment deals with T1, hLDHA (Homo sapiens, UniProt P00338).
T1 construct: purchased Abcam
Nature of the experiment: hLDHA enzymatic assay (kinetic fluorometric, pyruvate substrate, NADH co-factor). Format: biochemical. The conditions noted are these: for IC50: hLDHA, 1 mM pyruvate, 151 µM β-NADH, compounds 0.048–100 µM, n = 3. The method, then: The inhibitory activity of the pyrimidine-quinolone hybrids 10, 15, 19, and 24–31(a–c) against the hLDHA enzyme was measured by a kinetic spectrofluorometric assay.
hLDHA activity was determined throughout a fluorometric method with pyruvate as substrate and NADH co-factor, as previously reported and modified as described here: in each well, the final volume was set to 200 µL, and the final concentrations were 100 mM potassium phosphate buffer, 0.041 units/mL hLDHA (95%, specific activity >300 units/mg and concentration of 0.5 mg/mL, Abcam, Cambridge, United Kingdom), 151 µM β-NADH, 1 mM pyruvate (saturated conditions), and DMSO solutions (2%, v/v) of pure compounds at concentrations in the range of 0.048–100 µM. The reaction was initiated by the addition of pyruvate, and the NADH concentration decrease was measured for 10 min in a TECAN Infinite 200 Pro M Plex fluorescence plate reader at 28 °C, with excitation at 340 nm and emission at 460 nm. The percentage of activity for each measure was calculated by comparison between the maximum slope of each compound concentration and the maximum slope when no inhibitor (DMSO only) was in the well (100% enzymatic activity). The compound 3-[[3[(cyclopropylamino)sulfonyl]-7-(2,4-dimethoxy-5-pyrimidinyl)-4-quinolinyl]amino]-5-(3,5-difluorophenoxy)benzoic acid (GSK 2837808 A, Tocris, Minneapolis, MN, USA) was used as a positive control.
The measurements were obtained thrice, and data were expressed as the mean ± SD of n = 3 replicates for IC50 values. As-obtained data were later plotted in GraphPad Prism version 5.00 for Windows (GraphPad Software, La Jolla, CA, USA). Nonlinear regression analysis was chosen for dose response curve, representing the logarithm of inhibitor concentration vs. normalized enzymatic activity in order to calculate IC50 values.

What is called IC50 is the concentration needed to halve the response being measured. Turning to `COc1ccc2[nH]c(=O)c(CSc3ccc(Nc4nccc(-c5ccc6c(c5)OCO6)n4)cc3)cc2c1` [Compound 31c, 3-(((4-((4-(Benzo[d][1,3]dioxol-5-yl)pyrimidin-2-yl)amino)phenyl)thio)methyl)-6-methoxyquinolin-2(1H)-one], the “inhibitory activity against hLDHA (in words)” value was “inactive” and the IC50 was more than 100 µM.

`O=c1[nH]c2ccccc2cc1CSc1ccccc1Nc1nccc(-c2ccc3c(c2)OCO3)n1` [Compound 27a, 3-(((2-((4-(Benzo[d][1,3]dioxol-5-yl)pyrimidin-2-yl)amino)phenyl)thio)methyl)quinolin-2(1H)-one] gave an IC50 of more than 100 µM. With `COc1ccc2[nH]c(=O)c(CSc3cccc(Nc4nccc(-c5ccc6ccccc6c5)n4)c3)cc2c1` [Compound 35c, 6-Methoxy-3-(((3-((4-(naphthalen-2-yl)pyrimidin-2-yl)amino)phenyl)thio)methyl)quinolin-2(1H)-one], the concentration for half-maximal inhibition (IC50) was determined as 50.1 µM. For the compound `O=c1[nH]c2ccc(Cl)cc2cc1CSc1ccc(Nc2nccc(-c3ccc4c(c3)OCO4)n2)cc1` [Compound 31b, 3-(((4-((4-(Benzo[d][1,3]dioxol-5-yl)pyrimidin-2-yl)amino)phenyl)thio)methyl)-6-chloroquinolin-2(1H)-one], the IC50 came out at 49.9 µM. Same read-out and setting: with `COc1ccc2[nH]c(=O)c(CSc3ccccc3Nc3nccc(-c4ccc(C(F)(F)F)cc4)n3)cc2c1` [Compound 25c, 6-Methoxy-3-(((2-((4-(4-(trifluoromethyl)phenyl)pyrimidin-2-yl)amino)phenyl)thio)methyl)quinolin-2(1H)-one] the figure was 71.8 µM; with `O=c1[nH]c2ccc(Cl)cc2cc1CSc1ccccc1Nc1nccc(-c2ccc(Cl)cc2)n1` [Compound 24b, 6-Chloro-3-(((2-((4-(4-chlorophenyl)pyrimidin-2-yl)amino)phenyl)thio)meth-yl)quinolin-2(1H)-one], 34.8 µM; with `O=c1[nH]c2ccc(Cl)cc2cc1CSc1ccc(Nc2nccc(-c3ccc4ccccc4c3)n2)cc1` [Compound 30b, 6-Chloro-3-(((4-((4-(naphthalen-2-yl)pyrimidin-2-yl)amino)phenyl)thio)methyl)quinolin-2(1H)-one], more than 100 µM. Still for that read-out and setting: with `O=c1[nH]c2ccccc2cc1CSc1ccc(Nc2nccc(-c3ccc(C(F)(F)F)cc3)n2)cc1` [Compound 29a, 3-(((4-((4-(4-(Trifluoromethyl)phenyl)pyrimidin-2-yl)amino)phenyl)thio)methyl)quinolin-2(1H)-one] the figure was more than 100 µM; with `O=c1[nH]c2ccc(Cl)cc2cc1CSc1ccc(Nc2nccc(-c3ccc(C(F)(F)F)cc3)n2)cc1` [Compound 29b, 6-Chloro-3-(((4-((4-(4-(trifluoromethyl)phenyl)pyrimidin-2-yl)amino)phenyl)thio)methyl)quinolin-2(1H)-one], 83.2 µM. In the case of `O=c1[nH]c2ccccc2cc1CSc1ccc(Nc2nccc(-c3ccc4c(c3)OCO4)n2)cc1` [Compound 31a, 3-(((4-((4-(Benzo[d][1,3]dioxol-5-yl)pyrimidin-2-yl)amino)phenyl)thio)methyl)quinolin-2(1H)-one], the “inhibitory activity against hLDHA (in words)” value is “inactive” and the IC50 is more than 100 µM. The compound `COc1ccc2[nH]c(=O)c(CSc3ccc(Nc4nccc(-c5ccc(Cl)cc5)n4)cc3)cc2c1` [Compound 28c, 3-(((4-((4-(4-Chlorophenyl)pyrimidin-2-yl)amino)phenyl)thio)methyl)-6-methoxyquinolin-2(1H)-one] showed an IC50 of more than 100 µM. Compound `O=c1[nH]c2ccc(Cl)cc2cc1CSc1ccccc1Nc1nccc(-c2ccc(C(F)(F)F)cc2)n1` [Compound 25b, 6-Chloro-3-(((2-((4-(4-(trifluoromethyl)phenyl)pyrimidin-2-yl)amino)phenyl)thio)methyl)quinolin-2(1H)-one] came in with an IC50 of 42.3 µM. On the same count and under the same terms, with `O=c1[nH]c2ccc(Cl)cc2cc1CSc1ccc(Nc2nccc(-c3ccc(Cl)cc3)n2)cc1` [Compound 28b, 6-Chloro-3-(((4-((4-(4-chlorophenyl)pyrimidin-2-yl)amino)phenyl)thio)meth-yl)quinolin-2(1H)-one] the figure was more than 100 µM.
